In article PMC8301926 (Biomolecules, 2021):
Where “and” joins values, the source holds several entries; their conditions need not be identical. Identical values can stand only once. Like-named read-outs stand apart in the source and are kept apart here. Values belong to the compound of their own block, whether it stands above or below them.

Tests used:
[1] = biological target: T1, recombinant human monoamine oxidase A (hMAO-A) (Homo sapiens, UniProt P21397); test: hMAO-A enzyme kinetics (Lineweaver-Burk, Dixon, secondary plots); format: biochemical; settings: for Ki: from secondary plots; for Inhibition Type, hMAO-A: Lineweaver-Burk and Dixon plots
T1 sequence (P21397 1-527): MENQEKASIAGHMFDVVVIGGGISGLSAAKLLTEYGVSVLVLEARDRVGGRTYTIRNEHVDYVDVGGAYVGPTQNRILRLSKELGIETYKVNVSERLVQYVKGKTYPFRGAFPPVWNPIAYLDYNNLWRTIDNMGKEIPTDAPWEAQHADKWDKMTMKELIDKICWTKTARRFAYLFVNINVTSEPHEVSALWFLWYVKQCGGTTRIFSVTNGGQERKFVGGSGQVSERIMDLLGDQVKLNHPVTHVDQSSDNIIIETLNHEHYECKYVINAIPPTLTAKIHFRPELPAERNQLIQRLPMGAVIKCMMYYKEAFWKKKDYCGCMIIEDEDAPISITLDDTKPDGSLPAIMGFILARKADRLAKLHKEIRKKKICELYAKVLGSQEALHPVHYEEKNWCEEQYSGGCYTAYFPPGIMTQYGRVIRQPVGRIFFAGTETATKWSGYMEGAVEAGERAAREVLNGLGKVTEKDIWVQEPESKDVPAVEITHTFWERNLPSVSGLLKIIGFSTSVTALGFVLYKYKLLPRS

[2] = biological target: T2, recombinant human monoamine oxidase B (hMAO-B) (Homo sapiens, UniProt P27338); test: hMAO-B inhibition, MAO-Glo chemiluminescent assay; format: biochemical; settings: mean ± SD of triplicate experiments
T2 sequence (P27338 1-520): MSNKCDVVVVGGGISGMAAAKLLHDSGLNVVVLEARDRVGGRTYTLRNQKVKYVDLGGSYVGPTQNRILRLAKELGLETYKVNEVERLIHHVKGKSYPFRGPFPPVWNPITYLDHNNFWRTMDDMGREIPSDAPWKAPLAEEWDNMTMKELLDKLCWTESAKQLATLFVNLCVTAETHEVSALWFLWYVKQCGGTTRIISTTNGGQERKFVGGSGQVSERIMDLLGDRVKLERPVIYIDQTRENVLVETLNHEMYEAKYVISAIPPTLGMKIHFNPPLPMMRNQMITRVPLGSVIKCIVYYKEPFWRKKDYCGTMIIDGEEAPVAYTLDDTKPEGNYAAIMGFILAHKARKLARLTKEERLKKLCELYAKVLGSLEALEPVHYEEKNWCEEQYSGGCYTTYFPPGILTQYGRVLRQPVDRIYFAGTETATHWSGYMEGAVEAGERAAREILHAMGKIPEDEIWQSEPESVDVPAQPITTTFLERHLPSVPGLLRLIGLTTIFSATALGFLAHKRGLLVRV

[3] = biological target: T1, recombinant human monoamine oxidase A (hMAO-A); test: hMAO-A inhibition, MAO-Glo chemiluminescent assay; format: biochemical; settings: for IC50: mean ± SD of triplicate experiments; for SI (selectivity index): ratio of the IC50 value for hMAO-A inhibition to that for hMAO-B inhibition
[4] = system: recombinant human MAO-A (hMAO-A); set-up: method as in earlier work; settings: ref 27 (Dittman et al., 2004); read-out: IC50, recombinant human MAO-A (literature); cited from earlier work
[5] = biological target: T2, recombinant human monoamine oxidase B (hMAO-B); test: hMAO-B enzyme kinetics (Lineweaver-Burk, Dixon, secondary plots); format: biochemical; settings: for Ki: from secondary plots; for Inhibition Type, hMAO-B: Lineweaver-Burk and Dixon plots
[6] = biological target: T3, human M4 muscarinic acetylcholine receptor (hM4R) (Homo sapiens, UniProt P08173); test: M4 (h) functional GPCR assay, antagonist effect, cAMP HTRF; format: cell-based; settings: CHO cells, cAMP; read-out: Reference IC50, M4 reference antagonist
T3 construct: host or cells: CHO cells
T3 sequence (P08173 1-479): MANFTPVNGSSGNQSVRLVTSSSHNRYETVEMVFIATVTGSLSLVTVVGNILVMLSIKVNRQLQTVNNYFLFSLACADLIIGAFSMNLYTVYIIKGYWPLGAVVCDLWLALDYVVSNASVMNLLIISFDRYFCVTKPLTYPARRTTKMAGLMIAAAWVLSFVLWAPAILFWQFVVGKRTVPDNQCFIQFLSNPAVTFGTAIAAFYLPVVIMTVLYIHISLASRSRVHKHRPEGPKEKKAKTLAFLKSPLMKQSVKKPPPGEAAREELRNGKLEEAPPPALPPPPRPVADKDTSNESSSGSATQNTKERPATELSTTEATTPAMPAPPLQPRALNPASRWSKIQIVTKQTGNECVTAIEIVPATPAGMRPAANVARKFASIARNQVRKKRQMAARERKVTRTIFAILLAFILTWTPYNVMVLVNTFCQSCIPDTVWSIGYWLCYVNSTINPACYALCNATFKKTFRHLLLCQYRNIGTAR
Procedure: The cellular and nuclear receptor functional assays were carried out at Eurofins Cerep (Le Bois I’ Eveque, France) following the in-house protocols (catalog items G029-1262, G029-1474, G030-1658, G030-1659, G031-1243, G031-1244, G032-1670, G032-1671, G033-4217, and G033-4212). The experimental methods for the assays were as described in the previous reports and the general methodology is summarized in the Supplementary Information Table S1. Recombinant human Chinese hamster ovary (CHO) cells and rat basophilic leukemic (RBL) cells were transfected with the GPCR genes of interest (hM1R, hM2R, hM3R, hM4R, and hM5R). The functional assay provided the readouts based on the measurements of calcium ion mobilization (for the Gαq/11-coupled receptors) and cAMP level (for the Gαi/o-coupled receptors).
Stable CHO cells expressing the transfected cDNA of human M2 receptors were suspended in a medium containing HBSS buffer complemented with 20-mM HEPES buffer (pH 7.4) and 500-µM IBMX, whereas the stable human M4 receptor cloned CHO cells were distributed in HBSS buffer with 20-mM HEPES/NaOH (pH 7.4), 70-mM NaCl, 5.33-mM KCl, 1.25-mM CaCl2, 0.5-mM MgCl2, 0.41-mM MgSO4, 0.441-mM KH2PO4, 0.3-mM Na2HPO4, 0.1% glucose, and 500-µM IBMX. […] The cAMP level was calculated as the ratio of the signal measured at 665 nm to that measured at 620 nm. […]
Assay Source Stimulus Incubation Measured Detection References […]

Structure (SMILES): C[C@H]1COC2=C1C(=O)C(=O)c1c2ccc2c1CCCC2(C)C [Cryptotanshinone]
Ki ([1]; Kic, hMAO-A): 4.99 ± 0.34 µM
Ki ([1]; Kiu, hMAO-A): 38.1 ± 1.79 µM
Inhibition Type, hMAO-A [1]: Mixed
Inhibition Type, hMAO-A ([1]; listed as 3): mixed-mode
IC50 [2]: 23.1 ± 2.1 µM
IC50 ([3]; IC50, hMAO-A): < 10 µM and 8.7 µM
SI (selectivity index) [3]: 0.38
IC50 [4]: 84 µM
Ki ([5]; Kic, hMAO-B): 9.33 ± 0.1 µM
Inhibition Type, hMAO-B [5]: Competitive
Inhibition Type, hMAO-B ([5]; listed as 3): competitive enzyme inhibition

Structure (SMILES): Cc1cccc2c3c(ccc12)C1=C(C(=O)C3=O)[C@@H](C)CO1 [Dtan I, dihydrotanshinone I, reference compound]
IC50 [4]: 23 µM

IC50 [6]: 0.036 µM
Structure (SMILES): CCOC(=O)c1c(C)[nH]c2ccc3c(c12)CN1CCc2cc(OC)ccc2C1O3 (stereo not shown) [PD 102807, reference compound]

Inhibition Type, hMAO-A [1]: Mixed
Inhibition Type, hMAO-A ([1]; listed as 2): mixed-mode
Ki ([1]; read-out: Kic, hMAO-A): 0.72 ± 0.13 µM
Ki ([1]; read-out: Kiu, hMAO-A): 2.74 ± 0.37 µM
IC50 [2]: < 25 µM and 17.5 µM
IC50 ([3]; read-out: IC50, hMAO-A): < 10 µM and 6.08 µM
SI (selectivity index) [3]: 0.35
Inhibition Type, hMAO-B [5]: Non-competitive
Inhibition Type, hMAO-B ([5]; listed as 2): noncompetitive inhibition
Ki ([5]; read-out: Kic, hMAO-B): 12.9 ± 1.14 µM
Ki ([5]; read-out: Kiu, hMAO-B): 13.7 ± 0.58 µM
Structure (SMILES): Cc1coc2c1C(=O)C(=O)c1c-2ccc2c1CCCC2(C)C [Tanshinone IIA]
IC50 [4]: > 400 µM
